Source: patent US20090028871A1, “NOVEL USE OF LIGANDS SPECIFIC TO FEX-2 POLYPEPTIDE” (KYUNGPOOK NATIONAL UNIVERSITY INDUSTRY-ACADEMIC COOPERATION …, priority 2004, published 2009)

Columns and labels:
[1] = tested on: L/FEX-2 cells; test: Inhibition of binding and phagocytosis of aged red blood cells by L/FEX-2 cells; type: cell-based, mouse; conditions: L/FEX-2 cells pre-cultured with 100 μM, 37° C., 30 minutes; relative to control group taken as 100%
Method: Whether or not aged red blood cells are bound and phagocytosed by the L/FEX-2 cells prepared in Example <1-2> and L/Mock cells as a control group was examined. For this purpose, normal red blood cells obtained from normal adult volunteers were first diluted with PBS to a hematocrit concentration of 20% and cultured at 37° C. for 4 days, thus preparing aged red blood cells. Then, each of L/FEX-2 cells, L/Mock cells and normal L cells was cultured to a confluent 6-well plate comprising Dulbecco's modified Eagle's medium (DMEM). To the culture media, aged red blood cells and normal red blood cells were added to a hematocrit concentration of 1% and cultured at 37° C. for one hour. Then, the cells were washed five times with PBS, and observed for the binding of the aged red blood cells and normal red blood cells using an optical microscope. The number of red blood cells bound to 100 randomly selected L/FEX-2 cells was counted and averaged. To analyze phagocytosis, the cells were washed with PBS and treated with water for 10 seconds to completely dissolve undigested cells. Then, the L/FEX-2 cells were stained using the Diff quick staining kit (IMEM Ins., San Marcos, Calif., USA), and five sites from the stained cells were randomly selected and counted for the number of cells which have phagocytosed red blood cells phagocytosed. Binding and phagocytosis indexes (%) were expressed as the percentages of cells having red blood cells bound and phagocytosed thereby, relative to the entire L/FEX-2 cells.
To the L/FEX-2 cells prepared in Example <1-2>, 100 μg/ml of the human FEX-2 monoclonal antibody (5G3) was added and the mixture was pre-cultured at 37° C. for one hour. As a control group, mouse immunoglobulin (IgG1) in place of the FEX-2 monoclonal antibody was used. […] After completion of the culture, the binding and phagocytosis of the aged red blood cells were analyzed in the same manner as in Example <4-1>. In this regard, the binding and phagocytosis of the aged red blood cells were expressed as inhibition percentage relative to the case of L/FEX-2 cells, which have not been pre-cultured with the antibody.
Whether the binding and phagocytosis of red blood cells by the L/FEX-2 cells are inhibited, it was examined by pre-culturing the L/FEX-2 cells with each of the PS liposome, PI liposome, PG liposome, PE liposome, PA liposome and PC liposome prepared in Example <5-3> and then additionally culturing the pre-cultured cells with aged red blood cells. […] After completion of the culture, the binding and phagocytosis of the aged red blood cells were analyzed in the same manner as in. […] The binding and phagocytosis of aged red blood cells were expressed as values relative to the control group taken as 100%. […]

[2] = tested on: premyelomonocytic leukemic U937 cells; test: Induction of apoptosis in U937 cells (annexin V flow cytometry); type: cell-based, human; conditions: 100 ng/ml, 4 hours
Method: For this purpose, the apoptosis of human leukemic Jurkat T cells (Korean cell line bank) and premyelomonocytic leukemic U937 cells (Korean cell line bank) was induced. The cells were cultured in an RPMI 1640 medium comprising 10% fetal bovine serum. The induction of apoptosis of the Jurkat T cells was performed according to a known method by inoculating the Jurkat T cells in a medium comprising 100 ng/ml of an anti-Fas antibody (CH-11) and culturing the inoculated cells for 6 hours (Oka, K. et al., Proc Natl Acad Sci USA, 95:9535-40, 1998). Also, the induction of apoptosis of the U937 cells was performed according to a known method by inoculating the U937 cells in a medium comprising 100 ng/ml of ectoposide and culturing the inoculated cells for 4 hours (Bave, U., et. al., J Immunol 165:3519-26, 2000). The degree of apoptosis of the cells was determined by measuring the amount of phosphatidylserine expressed on the cell surface, by flow cytometry in the same manner as in Example <5-1> using the annexin V apoptosis detection kit (Santacruz) according to the manufacturer's instruction.

SMILES | binding of aged red blood cells [1] | phagocytosis of aged red blood cells [1] | apoptosis of the cells (phosphatidylserine on cell surface, annexin V) [2]
N[C@@H](COP(=O)(O)O)C(=O)O [PLS, phospho-L-serine] | significant inhibition | significant inhibition | –
N[C@H](COP(=O)(O)O)C(=O)O [PDS, phospho-D-serine] | no significant effect | no significant effect | –
COc1cc([C@@H]2c3cc4c(cc3[C@@H](O[C@@H]3O[C@@H]5CO[C@@H](C)O[C@H]5[C@H](O)[C@H]3O)[C@H]3COC(=O)[C@H]23)OCO4)cc(OC)c1O [ectoposide] | – | – | induced
